Data from patent US10681909B2, “Herbicidal triazoles” (FMC Corporation, priority 2014, dated 2020).

Assays:
[1] = tested on: kochia; assay: Test D postemergence; format: in vivo, Kochia scoparia; conditions: scale 0 to 100
Source text: (§1) Seeds of plant species selected from bluegrass (annual bluegrass, Poa annua), blackgrass (Alopecurus myosuroides), canarygrass (Phalaris minor), chickweed (common chickweed, Stellaria media), galium (catchweed bedstraw, Galium aparine), bromegrass, down (downy bromegrass, Bromus tectorum), Russian thistle (Salsola kali), field poppy (Papaver rhoeas), field violet (Viola arvensis), foxtail, green (green foxtail, Setaria viridis), deadnettle (henbit deadnettle, Lamium amplexicaule), ryegrass, Ital. (Italian ryegrass, Lolium multiflorum), kochia (Kochia scoparia), lambsquarters (Chenopodium album), oilseed rape (Brassica napus), pigweed (Amaranthus retroflexus), chamomile (scentless chamomile, Matricaria inodora), speedwell (bird's-eye speedwell, Veronica persica), barley, spring (spring barley, Hordeum vulgare), wheat, spring (spring wheat, Triticum aestivum), buckwheat, wild (wild buckwheat, Polygonum convolvulus), wild mustard (Sinapis arvensis), oat, wild (wild oat, Avena fatua), radish, wild (wild radish, Raphanus raphanistrum), […]), barley, winter (winter barley, Hordeum vulgare), and wheat, winter (winter wheat, Triticum aestivum) were planted into a silt loam soil and treated preemergence with test chemicals formulated in a non-phytotoxic solvent mixture which included a surfactant. At the same time, these species were planted in pots containing Sunshine Redi-Earth® planting medium comprising spaghnum peat moss, vermiculite, starter nutrients and dolomitic limestone and treated with postemergence applications of the test chemicals formulated in the same manner. Plants ranged in height from 2 to 18 cm (1- to 4-leaf stage). Treated plants and controls were maintained in a controlled growth environment for 14 to 21 d after which time all species were compared to controls and visually evaluated. […] A dash (-) response means no test result.

[2] = tested on: buckwheat, wild; assay: Test D postemergence; format: in vivo, Polygonum convolvulus; conditions: scale 0 to 100
Source text: as §1

[3] = tested on: bluegrass; assay: Test D postemergence; format: in vivo, Poa annua; conditions: scale 0 to 100
Source text: as §1

[4] = tested on: field violet; assay: Test D postemergence; format: in vivo, Viola arvensis; conditions: scale 0 to 100
Source text: as §1

[5] = tested on: oilseed rape; assay: Test D preemergence; format: in vivo, Brassica napus; conditions: for Plant response rating (0 to 100), Oilseed Rape: 16 g ai/ha, 0 is no effect, 100 is complete control; for Plant response rating: Oilseed Rape: scale 0 to 100
Source text: as §1

[6] = tested on: oilseed rape; assay: Test D postemergence; format: in vivo, Brassica napus; conditions: scale 0 to 100
Source text: as §1

[7] = tested on: buckwheat, wild; assay: Test D preemergence; format: in vivo, Polygonum convolvulus; conditions: for Plant response rating (0 to 100), Buckwheat, Wild: 16 g ai/ha, 0 is no effect, 100 is complete control; for Plant response rating: Buckwheat, Wild: scale 0 to 100
Source text: as §1

[8] = tested on: waterhemp; assay: Test C preemergence; format: in vivo, Amaranthus rudis; conditions: for Waterhemp plant response rating (0 to 100): Preemergence, visual rating after 13 to 15 d; for Plant response rating (scale of 0 to 100 where 0 is no effect and 100 is complete control): Waterhemp, preemergence, 250 g ai/ha
Source text: (§2) Seeds of plant species selected from blackgrass (Alopecurus myosuroides), ryegrass, Italian (Italian ryegrass, Lolium multiflorum), wheat (winter wheat, Triticum aestivum), galium (catchweed bedstraw, Galium aparine), corn (Zea mays), crabgrass, large (large crabgrass, Digitaria sanguinalis), foxtail, giant, (giant foxtail, Setaria faberii), johnsongrass (Sorghum halepense), lambsquarters (Chenopodium album), morningglory (Ipomoea coccinea), nutsedge, yellow (yellow nutsedge, Cyperus esculentus), pigweed (Amaranthus retroflexus), ragweed (common ragweed, Ambrosia elatior), soybean (Glycine max), barnyardgrass (Echinochloa crus-galli), oilseed rape (Brassica napus), waterhemp (common waterhemp, Amaranthus rudis), and velvetleaf (Abutilon theophrasti) were planted into a blend of loam soil and sand and treated preemergence with test chemicals formulated in a non-phytotoxic solvent mixture which included a surfactant. At the same time, plants selected from these crop and weed species and also chickweed (common chickweed, Stellaria media), oat, wild (wild oat, Avena fatua), and kochia (Kochia scoparia), were planted in pots containing Sunshine Redi-Earth® planting medium comprising spaghnum peat moss, vermiculite, starter nutrients and dolomitic limestone and treated with postemergence applications of test chemicals formulated in the same manner. Plants ranged in height from 2 to 18 cm (1- to 4-leaf stage) for postemergence treatments. […] A dash (-) response means no test result.

[9] = tested on: pigweed; assay: Test D preemergence; format: in vivo, Amaranthus retroflexus; conditions: for Plant response rating (0 to 100), Pigweed: 16 g ai/ha, 0 is no effect, 100 is complete control; for Plant response rating: Pigweed: scale 0 to 100
Source text: as §1

[10] = tested on: bromegrass, down; assay: Test D postemergence; format: in vivo, Bromus tectorum; conditions: scale 0 to 100
Source text: as §1

[11] = tested on: blackgrass; assay: Test C preemergence; format: in vivo, Alopecurus myosuroides; conditions: for Plant response rating (scale of 0 to 100 where 0 is no effect and 100 is complete control): Blackgrass, preemergence; for Blackgrass plant response rating (0 to 100): Preemergence, visual rating after 13 to 15 d
Source text: as §2

FC(F)(F)COc1nc(-c2ccccc2)nn1Cc1ccnc(C(F)(F)F)c1 [Compound 24]
Plant response rating: Kochia ([1]; 16 g ai/ha): 85 | Plant response rating: Kochia ([1]; 31 g ai/ha): 90 | Plant response rating: Kochia ([1]; 62 g ai/ha): 90 | Plant response rating: Kochia ([1]; 125 g ai/ha): 90 | Plant response rating: Buckwheat, Wild ([2]; 16 g ai/ha): 50 | Plant response rating: Buckwheat, Wild ([2]; 31 g ai/ha): 55 | Plant response rating: Buckwheat, Wild ([2]; 62 g ai/ha): 60 | Plant response rating: Buckwheat, Wild ([2]; 125 g ai/ha): 70 | Plant response rating: Bluegrass ([3]; 16 g ai/ha): 15 | Plant response rating: Bluegrass ([3]; 31 g ai/ha): 35 | Plant response rating: Bluegrass ([3]; 62 g ai/ha): 60 | Plant response rating: Bluegrass ([3]; 125 g ai/ha): 70 | Plant response rating: Field Violet ([4]; 16 g ai/ha): 70 | Plant response rating: Field Violet ([4]; 31 g ai/ha): 75 | Plant response rating: Field Violet ([4]; 62 g ai/ha): 80 | Plant response rating: Field Violet ([4]; 125 g ai/ha): 90 | Plant response rating (0 to 100), Oilseed Rape [5]: 15 | Plant response rating: Oilseed Rape ([5]; 62 g ai/ha): 55 | Plant response rating: Oilseed Rape ([5]; 125 g ai/ha): 70 | Plant response rating: Oilseed Rape ([6]; 16 g ai/ha): 65 | Plant response rating: Oilseed Rape ([6]; 31 g ai/ha): 75 | Plant response rating: Oilseed Rape ([6]; 62 g ai/ha): 80 | Plant response rating: Oilseed Rape ([6]; 125 g ai/ha): 85 | Plant response rating (0 to 100), Buckwheat, Wild [7]: 50 | Plant response rating: Buckwheat, Wild ([7]; 31 g ai/ha): 55 | Plant response rating: Buckwheat, Wild ([7]; 62 g ai/ha): 60 | Plant response rating: Buckwheat, Wild ([7]; 125 g ai/ha): 70 | Waterhemp plant response rating (0 to 100) ([8]; 31 g ai/ha): 100 | Waterhemp plant response rating (0 to 100) ([8]; 62 g ai/ha): 100 | Plant response rating (scale of 0 to 100 where 0 is no effect and 100 is complete control) [8]: 100 | Plant response rating (0 to 100), Pigweed [9]: 95 | Plant response rating: Pigweed ([9]; 62 g ai/ha): 100 | Plant response rating: Pigweed ([9]; 125 g ai/ha): 100 | Plant response rating: Bromegrass, Down ([10]; 16 g ai/ha): 25 | Plant response rating: Bromegrass, Down ([10]; 31 g ai/ha): 40 | Plant response rating: Bromegrass, Down ([10]; 62 g ai/ha): 45 | Plant response rating: Bromegrass, Down ([10]; 125 g ai/ha): 50 | Plant response rating (scale of 0 to 100 where 0 is no effect and 100 is complete control) ([11]; 125 g ai/ha): 90 | Plant response rating (scale of 0 to 100 where 0 is no effect and 100 is complete control) ([11]; 250 g ai/ha): 90 | Blackgrass plant response rating (0 to 100) ([11]; 31 g ai/ha): 10 | Blackgrass plant response rating (0 to 100) ([11]; 62 g ai/ha): 60

Fc1ccc(-c2nc(OCC(F)(F)F)n(Cc3ccnc(C(F)(F)F)c3)n2)cc1 [Compound 30]
Plant response rating: Kochia ([1]; 16 g ai/ha): 85 | Plant response rating: Kochia ([1]; 31 g ai/ha): 90 | Plant response rating: Kochia ([1]; 62 g ai/ha): 90 | Plant response rating: Kochia ([1]; 125 g ai/ha): 95 | Plant response rating: Buckwheat, Wild ([2]; 16 g ai/ha): 70 | Plant response rating: Buckwheat, Wild ([2]; 31 g ai/ha): 70 | Plant response rating: Buckwheat, Wild ([2]; 62 g ai/ha): 85 | Plant response rating: Buckwheat, Wild ([2]; 125 g ai/ha): 85 | Plant response rating: Bluegrass ([3]; 16 g ai/ha): 65 | Plant response rating: Bluegrass ([3]; 31 g ai/ha): 70 | Plant response rating: Bluegrass ([3]; 62 g ai/ha): 75 | Plant response rating: Bluegrass ([3]; 125 g ai/ha): 80 | Plant response rating: Field Violet ([4]; 16 g ai/ha): 75 | Plant response rating: Field Violet ([4]; 31 g ai/ha): 98 | Plant response rating: Field Violet ([4]; 62 g ai/ha): 95 | Plant response rating: Field Violet ([4]; 125 g ai/ha): 100 | Plant response rating (0 to 100), Oilseed Rape [5]: 10 | Plant response rating: Oilseed Rape ([5]; 62 g ai/ha): 35 | Plant response rating: Oilseed Rape ([5]; 125 g ai/ha): 55 | Plant response rating: Oilseed Rape ([6]; 16 g ai/ha): 90 | Plant response rating: Oilseed Rape ([6]; 31 g ai/ha): 75 | Plant response rating: Oilseed Rape ([6]; 62 g ai/ha): 100 | Plant response rating: Oilseed Rape ([6]; 125 g ai/ha): 100 | Plant response rating (0 to 100), Buckwheat, Wild [7]: 70 | Plant response rating: Buckwheat, Wild ([7]; 31 g ai/ha): 70 | Plant response rating: Buckwheat, Wild ([7]; 62 g ai/ha): 85 | Plant response rating: Buckwheat, Wild ([7]; 125 g ai/ha): 85 | Waterhemp plant response rating (0 to 100) ([8]; 31 g ai/ha): 100 | Waterhemp plant response rating (0 to 100) ([8]; 62 g ai/ha): 100 | Plant response rating (scale of 0 to 100 where 0 is no effect and 100 is complete control) [8]: 100 | Plant response rating (0 to 100), Pigweed [9]: 100 | Plant response rating: Pigweed ([9]; 62 g ai/ha): 100 | Plant response rating: Pigweed ([9]; 125 g ai/ha): 100 | Plant response rating: Bromegrass, Down ([10]; 16 g ai/ha): 30 | Plant response rating: Bromegrass, Down ([10]; 31 g ai/ha): 45 | Plant response rating: Bromegrass, Down ([10]; 62 g ai/ha): 65 | Plant response rating: Bromegrass, Down ([10]; 125 g ai/ha): 65 | Plant response rating (scale of 0 to 100 where 0 is no effect and 100 is complete control) ([11]; 125 g ai/ha): 90 | Plant response rating (scale of 0 to 100 where 0 is no effect and 100 is complete control) ([11]; 250 g ai/ha): 90 | Blackgrass plant response rating (0 to 100) ([11]; 31 g ai/ha): 60 | Blackgrass plant response rating (0 to 100) ([11]; 62 g ai/ha): 80
